Reference: patent US6075060A, “Trans olefinic diols with surfactant properties” (Air Products and Chemicals, Inc., priority 1998, dated 2000)
Converted amounts (≈) assume the structure as drawn.

Assays:
[1] = Equilibrium surface tension by maximum-bubble-pressure method; format: physicochemical; settings: for Equilibrium Surface Tension: 0.1 wt %, 23° C., 1 bubble/second, Table 2; for EST, trans olefin: 0.05 wt. %, Table 4; for EST of 0.1 wt % solution: cis and trans isomers, Table 7; for EST at Solubility Limit: trans isomers, Table 8
Protocol: The equilibrium surface tension is measured using the maximum-bubble-pressure method at 23° C. and 1 bubble/second. This method is described in Langmuir, Vol. 2 (1986), pp. 428-432. When measured at the solubility limit of the surfactant, an equilibrium surface tension of 40 dynes/cm or less is desired; preferably 35 dynes/cm or less.
The equilibrium surface tension was measured using the maximum-bubble-pressure method at 23° C. and 1 bubble/second at 0.1 wt %. The results, presented in Table 2, indicate that olefinic diols with 10 or less carbons are poor surfactants and the cis isomer has slightly better equilibrium surface tension than the trans isomer.
The equilibrium surface tension of the compounds of Examples 3, 4 and 5 was measured 0.05 wt. %.

[2] = Water solubility (solubility limit); format: physicochemical; settings: for solubility: water

Row | solubility ([2]; cis and trans isomers, Table 7) | EST of 0.1 wt % solution [1] | SMILES | further results
1 | < 100 µg/mL | 58 dynes/cm | CC(C)CC(C)(O)/C=C\C(C)(O)CC(C)C (stereo not drawn) [Example 7 cis, 2,4,7,9-tetramethyl-5-decene-4,7-diol] | 
2 | 2000 µg/mL (≈ 8760 µM) | 34 dynes/cm | CC(C)CC(C)(O)/C=C/C(C)(O)CC(C)C (stereo not drawn) [Example 7 trans, 2,4,7,9-tetramethyl-5-decene-4,7-diol] | Solubility Limit ([2]; trans isomers, Table 8): 0.2 wt % in water; EST at Solubility Limit [1]: 29 dynes/cm
3 | < 100 µg/mL | 68 dynes/cm | CC(C)CCC(C)(O)/C=C\C(C)(O)CCC(C)C (stereo not drawn) [Example 8 cis, 2,5,8,11-tetramethyl-6-dodecene-5,8-diol] | 
4 | 300 µg/mL (≈ 1170 µM) | 33 dynes/cm | CC(C)CCC(C)(O)/C=C/C(C)(O)CCC(C)C (stereo not drawn) [Example 8 trans, 2,5,8,11-tetramethyl-6-dodecene-5,8-diol] | Solubility Limit ([2]; trans isomers, Table 8): 0.03 wt % in water; EST at Solubility Limit [1]: 33 dynes/cm

The next lines start with the molecule.

Row | SMILES | solubility ([2]; cis and trans isomers, Table 7) | EST of 0.1 wt % solution [1] | further results
5 | CCC(C)(O)/C=C\C(C)(O)CC (stereo not drawn) [Example 2 cis] |  |  | Equilibrium Surface Tension [1]: 51 dynes/cm
6 | CCC(C)(O)/C=C/C(C)(O)CC (stereo not drawn) [Example 2 trans] |  |  | Equilibrium Surface Tension [1]: 59 dynes/cm
7 | CCCCCCC(C)(O)/C=C/C(C)(O)CCCCCC (centres unmarked) [Example 3] |  |  | EST, trans olefin [1]: 67 DYNES/CM
8 | CC(O)(/C=C/C(C)(O)c1ccccc1)c1ccccc1 (centres unmarked) [Example 4] |  |  | EST, trans olefin [1]: 67 DYNES/CM
9 | CCCCC(O)(/C=C/C(O)(CCCC)CCCC)CCCC [Example 5] |  |  | EST, trans olefin [1]: 69 DYNES/CM
10 | CCC(O)(/C=C\C(O)(CC)CC)CC [Example 6 cis, 3,6-diethyl-4-octene-3,6-diol] | 100 µg/mL (≈ 499 µM) | 54 dynes/cm | 
11 | CCC(O)(/C=C/C(O)(CC)CC)CC [Example 6 trans, 3,6-diethyl-4-octene-3,6-diol] | 5000 µg/mL (≈ 25000 µM) | 50 dynes/cm | 
12 | CCCCC(C)(O)/C=C/C(C)(O)CCCC (centres unmarked) [Example 9, 5,8-dimethyl-6-dodecene-5,8-diol] |  |  | solubility ([2]; trans isomers, Table 8): 1000 µg/mL (≈ 4380 µM); EST at Solubility Limit [1]: 33 dynes/cm
